Results taken from patent publication US20230277613A1, “Polysaccharide-Rich Bombax Costatum Flower Extract” (priority 2020, published 2023).
Marks after values point to notes of the source that are not given here.

Assays:
[1] = tested on: Staphylococcus epidermidis (ATCC 12228); test: In vitro sniff test and viability in reconstituted sweat, S. epidermidis; format: cell-based; set-up: key to Odor (Sniff) 6 h / Odor (Sniff) 24 h: 1. Absent (comparable to 0.1% chlorhexidine positive control); 2. Moderate; 3. Intense (bacteria-specific olfactory signature); conditions: 0.1% (BCP or chlorhexidine digluconate)
Description: (§1) Staphylococcus epidermidis (ATCC 12228) and Corynebacterium striatum (ATCC 6940) strains were used. Each of these strains has a typical olfactory signature, the result of the metabolism of sweat components: • S. epidermidis: Valeric and propionic acid; • C. striatum: Sulphanyl alcohols. Each bacterial strain was inoculated into a reconstituted sweat solution in the presence of the BCP extract at 0.1%; 0.6% or 2% or 0.1% chlorhexidine digluconate (positive control). After 6 h and 24 h of incubation: The bacterial viability was evaluated by bacterial count expressed in CFU/ml. A sniff test was carried out to determine the olfactory signature qualitatively and semi-quantitatively (intensity of the smell) immediately after opening the vial, the smell was evaluated and scored by a trained operator: • 1. […] Moderate • 3. Intense (bacteria-specific olfactory signature)

[2] = tested on: Corynebacterium striatum (ATCC 6940); test: In vitro sniff test and viability in reconstituted sweat, C. striatum; format: cell-based; set-up: key to Odor (Sniff) 6 h / Odor (Sniff) 24 h: 1. Absent (comparable to 0.1% chlorhexidine positive control); 2. Moderate; 3. Intense (bacteria-specific olfactory signature); conditions: 0.1% (BCP or chlorhexidine digluconate)
Description: as §1

[3] = tested on: IL1α (interleukin 1α); test: IL1-alpha produced by NHKs under PMA stress (ELISA); format: cell-based, human
Description: (§2) Normal Human Keratinocytes (NHK) were treated for 24 hours at 37° C. with the Bombax costatum Polysaccharide extract according to Example 1 (called BCP extract) at 0.01% and/or 0.05% of dry matter (DM) or by Dexamethasone or Indomethacin at 10^-7M (anti-inflammatory reference molecules). The cells were then treated by adding PMA at 10 μg/ml (Phorbol Myristate Acetate, inflammation-inducing agent) for 16 hours at 37° C. At the end of the treatment, the quantities of IL1α (interleukin 1α), PGE2 (Prostaglandin-E2), IL1β (Interleukin 1β), TNFα (Tumor Necrosis Factor α), IL6 (Interleukin 6) and IL8 (Interleukin 8) secreted were measured by the ELISA technique in the culture supernatants.
(§3) The significance of the results was assessed by a one-way analysis of variance followed by a Tuckey test.

[4] = tested on: IL1β (Interleukin 1β); test: IL1-beta produced by NHKs under PMA stress (ELISA); format: cell-based, human
Description: as §2, §3

[5] = tested on: IL6 (Interleukin 6); test: IL6 produced by NHKs under PMA stress (ELISA); format: cell-based, human
Description: as §2, §3

[6] = tested on: IL8 (Interleukin 8); test: IL8 produced by NHKs under PMA stress (ELISA); format: cell-based, human
Description: as §2, §3

[7] = tested on: TNFα (Tumor Necrosis Factor α); test: TNF-alpha produced by NHKs under PMA stress (ELISA); format: cell-based, human
Description: as §2, §3

[8] = tested on: PGE2 (Prostaglandin-E2); test: PGE2 produced by NHKs under PMA stress (ELISA); format: cell-based, human
Description: as §2, §3

[9] = tested on: hBD2; test: hBD2 gene expression in keratinocytes (real-time quantitative RT-PCR); format: cell-based, human; conditions: IL1β 100 ng/ml
Description: (§4) Normal human epidermal keratinocytes were treated for 24 or 48 hours with BCP extract or IL1β at 100 ng/ml (positive reference). At the end of the treatment, the gene expression of hBD2, hBD3 and TLR2 was analyzed by real-time quantitative RT-PCR.

[10] = tested on: hBD3; test: hBD3 gene expression in keratinocytes (real-time quantitative RT-PCR); format: cell-based, human; conditions: IL1β 100 ng/ml
Description: as §4

[11] = tested on: TLR2; test: TLR2 gene expression in keratinocytes (real-time quantitative RT-PCR); format: cell-based, human; conditions: IL1β 100 ng/ml
Description: as §4

[12] = tested on: hBD2; test: Intracellular hBD2 production in keratinocytes (ELISA); format: cell-based, human; conditions: IL1β 100 ng/ml
Description: (§5) Normal human epidermal keratinocytes were treated for 24 or 48 hours with BCP extract or IL1β at 100 ng/ml (positive reference). Moreover, the quantities of TLR2 and intracellular hBD2 were measured by ELISA.

[13] = tested on: TLR2; test: TLR2 production in keratinocytes (ELISA); format: cell-based, human; conditions: IL1β 100 ng/ml
Description: as §5

[14] = Dexamethasone 0.1 μM 24 hours, then PMA 10 μg/ml 16 hours
[15] = Dexamethasone 0.1 μM, vs PMA 10 μg/ml

In the case of `[H]/N=C(\N/C(=N/[H])NCCCCCCNC(=N)NC(=N)Nc1ccc(Cl)cc1)Nc1ccc(Cl)cc1` [Chlorhexidine, chlorhexidine digluconate], the “Viability 24 h” value ([1]; control 8.69 ± 0.09) is reported as 0.00 ± 0.00 Log10 CFU/ml, the “Viability 6 h” value ([1]; control 8.91 ± 0.21) is reported as 0.00 ± 0.00 Log10 CFU/ml and the “Odor (Sniff) 6 h” value ([1]; control Intense) is reported as “Absent”. For the same compound, the “Odor (Sniff) 24 h” value ([1]; control Intense) was “Absent”, the “Viability 6 h” value ([2]; control 8.51 ± 0.08) was 0.00 ± 0.00 Log10 CFU/ml and the “Viability 24 h” value ([2]; control 8.64 ± 0.19) was 0.00 ± 0.00 Log10 CFU/ml. For the same compound, the “Odor (Sniff) 6 h” value ([2]; control Moderate) was “Absent” and the “Odor (Sniff) 24 h” value ([2]; control Moderate) was “Intense”.
`C[C@@H]1C[C@H]2[C@@H]3CCC4=CC(=O)C=C[C@]4(C)[C@@]3(F)[C@@H](O)C[C@]2(C)[C@@]1(O)C(=O)CO` [Dexamethasone] was tested, and the “IL1α Average” value [3, 14] was 230.583 pg/mL, the “IL1α Evolution” value [3, 15] was −38% and the “IL1β Average” value [4, 14] was 34.410 pg/mL. The “IL1β Evolution” value [4, 15] was −32%, the “IL6 Average” value [5, 14] was 2.090 pg/mL and the “IL6 Evolution” value [5, 15] was −70%. For the same compound, the “IL8 Average” value [6, 14] was 4076.675 pg/mL, the “IL8 Evolution” value [6, 15] was −59 and the “TNFα Average” value [7, 14] was 16.216 pg/mL. The “TNFα Evolution” value [7, 15] was −52%, the “PGE2 Average” value [8, 14] was 39.000 pg/mL and the “PGE2 Evolution” value [8, 15] was −94%.
For “IL1β: IL1β at 100 ng/ml (positive reference)”, the “hBD2 RQ” value ([9]; 24 or 48 hours, control 1.12) was 3480.89, the “hBD2 Evolution” value ([9]; vs Control) was “×3000 ***” and the “hBD3 RQ” value ([10]; 24 or 48 hours, control 1.09) was 9.04. The “hBD3 Evolution” value ([10]; vs Control) was “+730% ***”, the “TLR2 RQ” value ([11]; 24 or 48 hours, control 1.08) was 3.26 and the “TLR2 Evolution” value ([11]; vs Control) was “+201% ***”. The hBD2 intracellular protein ([12]; 24 or 48 hours, control 141.5 ± 15.2) was 2162.7 ± 51.1 pg/mL, the “hBD2 protein Evolution” value ([12]; vs Control) was “+1428% ***” and the TLR2 protein ([13]; 24 or 48 hours, control 735.9 ± 39.2) was 913.7 ± 30.5 pg/mL. For the same compound, the “TLR2 protein Evolution” value ([13]; vs Control) was “+24% **”.
